{
  "source": "patent US20220372433A1",
  "about": "(priority 2021, published 2022)",
  "key": {"[1]": {"system": "Lactobacillus plantarum HG-23", "assay": "Antibiotic sensitivity test (microdilution method, MIC)", "format": "cell-based", "conditions": "cultured for 48 h", "experimental": "The antibiotic resistance of HG-23 was detected by a microdilution method. a series of 2-fold dilutions were performed on antibacterial drugs to be tested (Gentamicin, Kanamycin, Tetracycline, Erythromycin, Clindamycin, Chloramphenicol, Amplicilin, with initial concentrations of 1024 ug/ml, 256 ug/ml, 64 ug/ml, 8 ug/ml, 16 ug/ml, 64 ug/ml, 16 ug/ml) for 12 times, then added into corresponding wells of 96-well plates, and then […] diluted test bacterial solutions were added into the corresponding wells. After being cultured for 48 h, the minimum inhibitory concentration (MIC) well of the antibacterial drug, namely the sensitivity of the test strain, was observed."}, "Lactobacillus plantarum": {"system": "Lactobacillus plantarum", "design": "unit not given here", "conditions": "regulatory cut-off for Lactobacillus plantarum; cited from earlier work"}},
  "data": [
    {"substance": "Gentamicin", "values": [
      {"measurement": "minimum inhibitory concentration (MIC) of antibiotic against HG-23", "setting": "[1]", "result": 8, "unit": "µg/mL"},
      {"measurement": "EFSA specified safety value (Lactobacillus plantarum)", "setting": "Lactobacillus plantarum", "result": 16}
    ]}
  ]
}
